In patent publication US20260166162A1, “CARBON CHAIN SUBSTANCE FOR REGULATING TRANSMEMBRANE TRANSPORT AND FLUIDITY OF CELL MEMBRANES, AND PREPARATION AND USE THEREOF” (priority 2022, published 2026):

Experiments:
293T cells = assay: Cellular phagocytosis of DiD-loaded lipid vesicles (nano-drugs) by 293T cells (Example II-51, Table II-29); type: cell-based; settings: 293T cells pretreated 4 h, DiD lipid vesicles 2 h, n=3, untreated control 226.46 ± 1.26
Hela cells = assay: Cell membrane fluidity (Laurdan fluorescence recovery) in Hela cells; type: cell-based

| Compound | Fluorescence intensity (293T cells; 2 nM) | Fluorescence intensity (293T cells; 5 nM) | Fluorescence intensity (293T cells; 10 nM) | Fluorescence intensity (293T cells; 50 nM) | Fluorescence intensity (293T cells; 100 nM) | Fluorescence intensity (293T cells; 1 uM) | Fluorescence intensity (293T cells; 10 uM) | Fluorescence intensity (293T cells; 50 uM) | Fluorescence intensity (293T cells; 100 uM) | Fluorescence recovery rate % (Hela cells; 2 nM, 20 s) [%] | Fluorescence recovery rate % (Hela cells; 2 nM, 40 s) [%] | Fluorescence recovery rate % (Hela cells; 2 nM, 60 s) [%] | Fluorescence recovery rate % (Hela cells; 2 nM, 80 s) [%] | Fluorescence recovery rate % (Hela cells; 5 nM, 20 s) [%] | Fluorescence recovery rate % (Hela cells; 5 nM, 40 s) [%] | Fluorescence recovery rate % (Hela cells; 5 nM, 60 s) [%] | Fluorescence recovery rate % (Hela cells; 5 nM, 80 s) [%] | Fluorescence recovery rate % (Hela cells; 10 nM, 20 s) [%] | Fluorescence recovery rate % (Hela cells; 10 nM, 40 s) [%] | Fluorescence recovery rate % (Hela cells; 10 nM, 60 s) [%] | also measured |
| --- | --- | --- | --- | --- | --- | --- | --- | --- | --- | --- | --- | --- | --- | --- | --- | --- | --- | --- | --- | --- | --- |
| C/C=C/C(=O)O [Crotonic acid] | 157.30 ± 20.43 | 159.29 ± 0.43 | 94.34 ± 0.43 | 51.34 ± 0.43 | 59.65 ± 1.57 | 458.20 ± 20.41 | 326.69 ± 20.40 | 200.73 ± 10.31 | 218.13 ± 8.22 | – | – | – | – | – | – | – | – | – | – | – | – |
| CCCCCCCC/C=C\CCCCCCCC(=O)O.OCCO [Ethylene glycol-oleic acid] | 182.21 ± 18.23 | 121.07 ± 11.26 | 69.12 ± 4.26 | 64.90 ± 1.56 | 44.23 ± 4.26 | 368.97 ± 18.56 | – | 69.34 ± 5.32 | 58.72 ± 8.75 | – | – | – | – | – | – | – | – | – | – | – | – |
| CCCCCCCCCCCCCCCC(=O)OCC1OC(O)C(O)C(O)C1O (centres unmarked) [Glucose-C16] | 134.65 ± 15.22 | 114.00 ± 11.02 | 94.34 ± 4.57 | 96.63 ± 6.54 | 172.88 ± 26.33 | 198.54 ± 8.55 | 170.16 ± 20.33 | 110.15 ± 10.22 | 104.90 ± 4.91 | – | – | – | – | – | – | – | – | – | – | – | – |
| CCC=CCC=CCC=CCCCCCCCC(=O)OCC1OC(O)C(O)C(O)C1O (centres unmarked) [Glucose-linolenic acid] | – | – | – | – | – | – | – | – | – | 63.78 | 64.18 | 65.22 | 65.16 | 64.35 | 64.83 | 65.17 | 66.59 | 64.76 | 64.87 | 65.11 | Fluorescence recovery rate % (Hela cells; 10 nM, 80 s): 66.83%; Fluorescence recovery rate % (Hela cells; 50 nM, 20 s): 63.24%; Fluorescence recovery rate % (Hela cells; 50 nM, 40 s): 64.10%; Fluorescence recovery rate % (Hela cells; 50 nM, 60 s): 64.54%; Fluorescence recovery rate % (Hela cells; 50 nM, 80 s): 65.23%; Fluorescence recovery rate % (Hela cells; 50 μM, 20 s): 63.11%; Fluorescence recovery rate % (Hela cells; 50 μM, 40 s): 70.49%; Fluorescence recovery rate % (Hela cells; 50 μM, 60 s): 74.88%; Fluorescence recovery rate % (Hela cells; 50 μM, 80 s): 79.24%; Fluorescence recovery rate % (Hela cells; 100 μM, 20 s): 65.93%; Fluorescence recovery rate % (Hela cells; 100 μM, 40 s): 69.87%; Fluorescence recovery rate % (Hela cells; 100 μM, 60 s): 75.03%; Fluorescence recovery rate % (Hela cells; 100 μM, 80 s): 80.83% |
| CCCCCC(=O)O [Hexanoic acid] | 131.26 ± 11.25 | 114.00 ± 14.2 | 94.34 ± 4.25 | 96.63 ± 6.32 | 30.71 ± 1.25 | 102.07 ± 12.2 | 125.10 ± 12.55 | 288.42 ± 8.32 | 325.58 ± 15.26 | – | – | – | – | – | – | – | – | – | – | – | – |
| CCCCCCCCCCCC(=O)NCCCCC(N)C(=O)O (centres unmarked) [Lys-C12] | 175.30 ± 15.23 | 103.11 ± 10.33 | 49.05 ± 5.26 | 24.16 ± 3.36 | 25.45 ± 5.22 | 367.61 ± 27.11 | 417.28 ± 17.23 | 110.76 ± 8.54 | 104.90 ± 6.23 | – | – | – | – | – | – | – | – | – | – | – | – |
| CCCCCCCCC=CCCCCCCCC(=O)OCC(O)C1OC(=O)C(O)=C1O (centres unmarked) [Vc-oleic acid] | – | – | – | – | – | – | – | – | – | 61.48 | 62.33 | 63.41 | 64.57 | 61.87 | 62.99 | 63.47 | 63.21 | 63.72 | 63.75 | 64.67 | Fluorescence recovery rate % (Hela cells; 10 nM, 80 s): 65.92%; Fluorescence recovery rate % (Hela cells; 50 nM, 20 s): 62.43%; Fluorescence recovery rate % (Hela cells; 50 nM, 40 s): 62.62%; Fluorescence recovery rate % (Hela cells; 50 nM, 60 s): 63.37%; Fluorescence recovery rate % (Hela cells; 50 nM, 80 s): 64.24%; Fluorescence recovery rate % (Hela cells; 50 μM, 20 s): 62.54%; Fluorescence recovery rate % (Hela cells; 50 μM, 40 s): 67.11%; Fluorescence recovery rate % (Hela cells; 50 μM, 60 s): 74.55%; Fluorescence recovery rate % (Hela cells; 50 μM, 80 s): 76.57%; Fluorescence recovery rate % (Hela cells; 100 μM, 20 s): 61.66%; Fluorescence recovery rate % (Hela cells; 100 μM, 40 s): 73.65%; Fluorescence recovery rate % (Hela cells; 100 μM, 60 s): 77.32%; Fluorescence recovery rate % (Hela cells; 100 μM, 80 s): 78.61% |
| adenosine monophosphate-linoleic acid | – | – | – | – | – | – | – | – | – | 62.11 | 62.98 | 64.26 | 68.17 | 63.44 | 64.22 | 65.78 | 66.39 | 63.22 | 63.48 | 64.42 | Fluorescence recovery rate % (Hela cells; 10 nM, 80 s): 65.93%; Fluorescence recovery rate % (Hela cells; 50 nM, 20 s): 64.25%; Fluorescence recovery rate % (Hela cells; 50 nM, 40 s): 64.66%; Fluorescence recovery rate % (Hela cells; 50 nM, 60 s): 65.33%; Fluorescence recovery rate % (Hela cells; 50 nM, 80 s): 66.23%; Fluorescence recovery rate % (Hela cells; 50 μM, 20 s): 64.44%; Fluorescence recovery rate % (Hela cells; 50 μM, 40 s): 70.73%; Fluorescence recovery rate % (Hela cells; 50 μM, 60 s): 74.64%; Fluorescence recovery rate % (Hela cells; 50 μM, 80 s): 80.57%; Fluorescence recovery rate % (Hela cells; 100 μM, 20 s): 63.22%; Fluorescence recovery rate % (Hela cells; 100 μM, 40 s): 67.48%; Fluorescence recovery rate % (Hela cells; 100 μM, 60 s): 75.42%; Fluorescence recovery rate % (Hela cells; 100 μM, 80 s): 79.93% |
